Patent US20050197338A1, “Substituted pyrazole urea compounds for the treatment of inflammation” (priority 2003, published 2005)

target: T1, human IKK-2 (rhIKK-2 homodimer) (Homo sapiens, UniProt O14920); assay: IKK-2 Resin Enzyme Assay (Human IKK-2 Enzyme Assay); type: biochemical; settings: human IKK-2, resin enzyme assay; read-out: IC50 (μM) hIKK-2
T1 construct: FLAG (DYKDDDDKD) (C); made in house; host or cells: insect cells (baculovirus, pFastBac)
T1 sequence (O14920 1-756): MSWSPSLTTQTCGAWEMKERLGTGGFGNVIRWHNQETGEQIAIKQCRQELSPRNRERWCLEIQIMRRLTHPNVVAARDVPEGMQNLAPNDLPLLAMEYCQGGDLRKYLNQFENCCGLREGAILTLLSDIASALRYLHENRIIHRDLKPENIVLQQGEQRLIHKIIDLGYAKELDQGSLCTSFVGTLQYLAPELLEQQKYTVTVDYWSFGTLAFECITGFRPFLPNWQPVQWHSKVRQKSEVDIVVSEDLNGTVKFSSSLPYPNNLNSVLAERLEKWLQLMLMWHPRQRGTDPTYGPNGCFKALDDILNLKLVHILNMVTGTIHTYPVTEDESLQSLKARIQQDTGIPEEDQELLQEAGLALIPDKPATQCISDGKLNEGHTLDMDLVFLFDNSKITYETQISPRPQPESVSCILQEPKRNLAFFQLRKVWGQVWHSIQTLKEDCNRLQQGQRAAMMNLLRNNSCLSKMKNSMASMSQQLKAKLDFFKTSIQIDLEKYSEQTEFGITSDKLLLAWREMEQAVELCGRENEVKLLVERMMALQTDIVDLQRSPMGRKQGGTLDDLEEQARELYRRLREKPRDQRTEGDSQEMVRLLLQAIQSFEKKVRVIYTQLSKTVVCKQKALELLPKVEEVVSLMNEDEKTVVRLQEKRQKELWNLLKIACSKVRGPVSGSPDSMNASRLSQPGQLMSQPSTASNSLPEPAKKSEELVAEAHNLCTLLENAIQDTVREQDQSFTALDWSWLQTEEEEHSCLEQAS
In short: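 C-terminally FLAG-tagged human IKK-2 homodimer, baculovirus-expressed in insect cells and anti-FLAG purified. Reaction mix: 5 μM biotinylated IκBα peptide (Ser32/Ser36 region), 1 μM ATP with [γ-33P]ATP, 2 mM MgCl2, 2 mM MnCl2, 10 mM NaF, 1 mM DTT, 25 mM HEPES pH 7.6. Incubated 30 min at 25 °C; IC50 derived.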

| IC50 [µM] | Compound |
| --- | --- |
| 0.21 | CCNC(=O)COc1cccc(-c2ccc(-n3cc(NC(N)=O)c(C(N)=O)n3)cc2)c1 [Example 335, 4-[(aminocarbonyl)amino]-1-{3′-[2-(ethylamino)-2-oxoethoxy]-1, 1′-biphenyl-4-yl}-1H-pyrazole-3-carboxamide] |
| 1.36 | N#CCc1cccc(-c2ccc(-n3cc(NC(N)=O)c(C(N)=O)n3)cc2)c1 [Example 27, 4-[(aminocarbonyl)amino]-1-[3′-(cyanomethyl)-1,1′-biphenyl-4-yl]-1H-pyrazole-3-carboxamide] |
| 0.892 | NC(=O)Nc1cn(-c2ccc(-c3ccccc3O)cc2F)nc1C(N)=O [Example 249, 4-[(aminocarbonyl)amino]-1-(3-fluoro-2′-hydroxy-1,1′-biphenyl-4-yl)-1H-pyrazole-3-carboxamide] |
| 0.187 | NC(=O)Nc1cn(-c2ccc(S(=O)(=O)C3CCCC3)cc2)nc1C(N)=O [Example 287, 1-(3-carbamoyl-1-(4-(cyclopentylsulfonyl)phenyl)-1H-pyrazol-4-yl)urea] |
| 0.53 | COC(=O)c1ccc(-c2ccc(-n3cc(NC(N)=O)c(C(N)=O)n3)cc2)c(N)c1 [Example 29, methyl 2-amino-4′-{3-(aminocarbonyl)-4-[(aminocarbonyl)amino]-1H-pyrazol-1-yl}-1,1′-biphenyl-4-carboxylate] |
| 5.99 | CC(=O)OCc1cccc(-c2ccc(-n3cc(NC(N)=O)c(C(N)=O)n3)cc2)c1 [Example 165, 4′-{3-(aminocarbonyl)-4-[(aminocarbonyl)amino]-1H-pyrazol-1-yl}-1,1′-biphenyl-3-yl)methyl acetate] |
| 8.08 | NC(=O)Nc1cn(-c2ccc(-c3ccc(C(=O)NCc4ccccc4F)c(F)c3)cc2)nc1C(N)=O [Example 157, 4-[(aminocarbonyl)amino]-1-(3′-fluoro-4′-{[(2-fluorobenzyl)amino]carbonyl}-1,1′-biphenyl-4-yl)-1H-pyrazole-3-carboxamide] |
| 6.08 | CN1CCOc2cc(-c3cccc(-n4cc(NC(N)=O)c(C(N)=O)n4)c3)ccc21 [Example 64, 4-[(aminocarbonyl)amino]-1-[3-(4-methyl-3,4-dihydro-2H-1,4-benzoxazin-7-yl)phenyl]-1H-pyrazole-3-carboxamide] |
| 0.228 | CC(C#N)Oc1ccc(F)cc1-c1ccc(-n2cc(NC(N)=O)c(C(N)=O)n2)cc1 (stereo not drawn) [Example 180, 4-[(aminocarbonyl)amino]-1-[2′-(1-cyanoethoxy)-5′-fluoro-1,1′-biphenyl-4-yl]-1H-pyrazole-3-carboxamide] |
| 3.2 | COc1ccccc1-c1cccc(-n2cc(NC(N)=O)c(C(N)=O)n2)c1 [Example 88, 4-[(aminocarbonyl)amino]-1-(2′-methoxy-1,1′-biphenyl-3-yl)-1H-pyrazole-3-carboxamide] |
| > 20 | NC(=O)Nc1cn(-c2cccc(-c3ccc(-c4ccccc4)cc3)c2)nc1C(N)=O [Example 373, 4-[(aminocarbonyl)amino]-1-(1,1′:4′,1″-terphenyl-3-yl)-1H-pyrazole-3-carboxamide] |
| 3.9 | N#CCOc1cccc(-c2ccc(-n3cc(NC(N)=O)c(C(N)=O)n3)cc2C(F)(F)F)c1 [Example 237, 4-[(aminocarbonyl)amino]-1-[3′-(cyanomethoxy)-2-(trifluoromethyl)-1,1′-biphenyl-4-yl]-1H-pyrazole-3-carboxamide] |
| 1.07 | CNC(=O)COc1ccc(F)cc1-c1ccc(-n2cc(NC(N)=O)c(C(N)=O)n2)cc1 [Example 256, 4-[(aminocarbonyl)amino]-1-{5′-fluoro-2′-[2-(methylamino)-2-oxoethoxy]-1,1′-biphenyl-4-yl}-1H-pyrazole-3-carboxamide] |
| 6.01 | CCOC(=O)c1ccc(-c2ccc(-n3cc(NC(N)=O)c(C(N)=O)n3)cc2)cc1 [Example 147, ethyl 4′-{3-(aminocarbonyl)-4-[(aminocarbonyl)amino]-1H-pyrazol-1-yl}-1,1′-biphenyl-4-carboxylate] |
| 0.58 | NC(=O)Nc1cn(-c2cccc(-c3ccc(C(=O)NCC(=O)O)cc3)c2)nc1C(N)=O [Example 85, N-[(3′-{3-(aminocarbonyl)-4-[(aminocarbonyl)amino]-1H-pyrazol-1-yl}-1,1′-biphenyl-4-yl)carbonyl]glycine] |
| 1.64 | NC(=O)Nc1cn(-c2ccc(-c3ccccc3O)cc2)nc1C(N)=O [Example 23, 4-[(aminocarbonyl)amino]-1-(2′-hydroxy-1,1′-biphenyl-4-yl)-1H-pyrazole-3-carboxamide] |
| 6.56 | NC(=O)Nc1cn(-c2ccc(Sc3ccc(O)cc3)cc2)nc1C(N)=O [Example 199, 1-(1-(4-(4-hydroxyphenylthio)phenyl)-3-carbamoyl-1H-pyrazol-4-yl)urea] |

| IC50 [µM] | Compound |
| --- | --- |
| 2.16 | COc1ccc(-c2cccc(-n3cc(NC(N)=O)c(C(N)=O)n3)c2)cc1OC [Example 56, 4-[(aminocarbonyl)amino]-1-(3,4′-dimethoxy-1,1′-biphenyl-3-yl)-1H-pyrazole-3-carboxamide] |
| > 20 | CCc1ccc(-c2cccc(-n3cc(NC(N)=O)c(C(N)=O)n3)c2)cc1 [Example 342, 4-[(aminocarbonyl)amino]-1-(4′-ethyl-1,1′-biphenyl-3-yl)-1H-pyrazole-3-carboxamide] |
| 0.512 | CC1(C)OB(c2ccc(-n3cc(NC(N)=O)c(C(N)=O)n3)cc2)OC1(C)C [Example 260, 4-[(aminocarbonyl)amino]-1-[4-(4,4,5,5-tetramethyl-1,3,2-dioxaborolan-2-yl)phenyl]-1H-pyrazole-3-carboxamide] |
| 5.97 | NC(=O)Nc1cn(-c2ccc(-c3ccc(C(=O)NC4CCCc5ccccc54)c(F)c3)cc2)nc1C(N)=O (stereo not drawn) [Example 159, 4-[(aminocarbonyl)amino]-1-{3′-fluoro-4′-[(1,2,3,4-tetrahydronaphthalen-1-ylamino)carbonyl]-1,1′-biphenyl-4-yl}-1H-pyrazole-3-carboxamide] |
| 7.91 | NC(=O)Nc1cn(-c2cccc(-c3ccc4c(c3)OCO4)c2)nc1C(N)=O [Example 62, 4-[(aminocarbonyl)amino]-1-[3-(1,3-benzodioxol-5-yl)phenyl]-1H-pyrazole-3-carboxamide] |
| 0.6 | NC(=O)Nc1cn(-c2cccc(-c3ccc(C(=O)NC4CC4)cc3)c2)nc1C(N)=O [Example 80, 4-[(aminocarbonyl)amino]-1-{4′-[(cyclopropylamino)carbonyl]-1,1′-biphenyl-3-yl}-1H-pyrazole-3-carboxamide] |
| > 20 | NC(=O)Nc1cn(-c2cccc(-c3ccc(C4CCCCC4)cc3)c2)nc1C(N)=O [Example 375, 4-[(aminocarbonyl)amino]-1-(4′-cyclohexyl-1,1′-biphenyl-3-yl)-1H-pyrazole-3-carboxamide] |
| 0.561 | NC(=O)Nc1cn(-c2ccc(Sc3cccc(F)c3)cc2)nc1C(N)=O [Example 197, 1-(1-(4-(3-fluorophenylthio)phenyl)-3-carbamoyl-1H-pyrazol-4-yl)urea] |
| 0.7 | Cc1cc(O)ccc1-c1cccc(-n2cc(NC(N)=O)c(C(N)=O)n2)c1 [Example 89, 4-[(aminocarbonyl)amino]-1-(4′-hydroxy-2′-methyl-1,1′-biphenyl-3-yl)-1H-pyrazole-3-carboxamide] |
| 8.57 | CSc1ccc(-c2cccc(-n3cc(NC(N)=O)c(C(N)=O)n3)c2)cc1 [Example 358, 4-[(aminocarbonyl)amino]-1-[4′-(methylthio)-1,1′-biphenyl-3-yl]-1H-pyrazole-3-carboxamide] |
| 0.05 | NC(=O)Nc1cn(-c2ccc(-c3ccc(C(N)=O)cc3)cc2)nc1C(N)=O [Example 149, 4-[(aminocarbonyl)amino]-1-[4′-(aminocarbonyl)-1,1′-biphenyl-4-yl]-1H-pyrazole-3-carboxamide] |
| 4.07 | CC(=O)c1ccc(-c2cccc(-n3cc(NC(N)=O)c(C(N)=O)n3)c2)cc1 [Example 53, 1-(4′-acetyl-1,1′-biphenyl-3-yl)-4-[(aminocarbonyl)amino]-1H-pyrazole-3-carboxamide] |
| 2.81 | NC(=O)Nc1cn(-c2cccc(-c3ccc(C(=O)O)cc3)c2)nc1C(N)=O [Example 58, 3′-{3-(aminocarbonyl)-4-[(aminocarbonyl)amino]-1H-pyrazol-1-yl}-1,1′-biphenyl-4-carboxylic acid] |
| 1.4 | NC(=O)Nc1cn(-c2ccc(C(=O)N3CCCCC3)cc2)nc1C(N)=O [Example 303, 4-[(aminocarbonyl)amino]-1-[4-(piperidin-1-ylcarbonyl)phenyl]-1H-pyrazole-3-carboxamide] |
| 0.664 | CSc1ccc(-c2ccc(-n3cc(C(N)=O)c(NC(N)=O)n3)cc2)cc1 [Example 119] |
| 1.99 | NC(=O)Nc1nn(-c2ccc(-c3cccc(F)c3F)cc2)cc1C(N)=O [Example 112] |
